Measurements from patent US9909219B2, “Slurry biocide” (ECOLAB USA INC., priority 2014, dated 2018).

How the values were obtained:
[1] = tested on: Sulfate Reducing Bacteria; experiment: Biocide treatment of pipeline makeup water (river water): sulfate reducing bacteria count; type: cell-based
From the text: (§1) Two water samples collected directly of makeup water of a pipeline sourced form river water, were submitted to biocide treatment. One sample was highly contaminated with microorganisms (1700 CFU/mL) while the other was less contaminated (120 CFU/mL). […] There is a dramatic reduction in required dosage using oxidizing biocide ([…]) (Tests 3, 4 and 7).

[2] = tested on: Total Aerobic Bacteria; experiment: Biocide treatment of pipeline makeup water (river water): total aerobic bacteria count; type: cell-based
From the text: as §1

SMILES | Final Count Sulfate Reducing Bacteria ([1]; Test 1, initial count 30 CFU/mL, dosage 500 ppm) | Final Count Sulfate Reducing Bacteria ([1]; Test 5, initial count <10 CFU/mL, dosage 500 ppm) | Final Count Total Aerobic Bacteria ([2]; Test 1, initial count 1700 CFU/mL, dosage 500 ppm) | Final Count Total Aerobic Bacteria ([2]; Test 5, initial count 120 CFU/mL, dosage 500 ppm) | Final Count Sulfate Reducing Bacteria ([1]; Test 3, initial count 30 CFU/mL, dosage 5 ppm) | Final Count Sulfate Reducing Bacteria ([1]; Test 4, initial count <10 CFU/mL, dosage 4 ppm) | Final Count Sulfate Reducing Bacteria ([1]; Test 7, initial count <10 CFU/mL, dosage 1.5 ppm) | Final Count Total Aerobic Bacteria ([2]; Test 3, initial count 1700 CFU/mL, dosage 5 ppm) | Final Count Total Aerobic Bacteria ([2]; Test 4, initial count 120 CFU/mL, dosage 4 ppm) | Final Count Total Aerobic Bacteria ([2]; Test 7, initial count 120 CFU/mL, dosage 1.5 ppm)
O=CCCCC=O [A, Glutaraldehyde] | 10 CFU/mL | <10 CFU/mL | 330 CFU/mL | <27 CFU/mL | – | – | – | – | – | –
[O][Cl+][O-] [ClO2, chlorine dioxide] | – | – | – | – | <10 CFU/mL | <10 CFU/mL | <10 CFU/mL | 30 CFU/mL | <27 CFU/mL | <27 CFU/mL
